These are literature values, as cited in patent publication US12225905B2, “Antimicrobial superabsorbent compositions” (Matoke Holdings Limited, priority 2017, dated 2025).

The conditions of this data set: 20° C. and 1 atm.

Regarding `O=C(CO)[C@@H](O)[C@H](O)[C@H](O)CO` [Fructose], the solubility entry is “about 375 g/100 g water”.
